In PubChem BioAssay (NCI):
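How tested: cells in 96-well plates exposed to compound for 48 hours at five concentrations. GI50: concentration for 50% inhibition of growth. TGI is the concentration that stops growth completely.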

Experiments:
Assay in all cases: growth of human tumour cells (NCI), 48 h
786-0 renal = system: 786-0 renal
A498 renal = system: A498 renal
A549 NSCLC = system: A549 NSCLC
ACHN renal = system: ACHN renal
BT-549 breast = system: BT-549 breast
CAKI-1 renal = system: CAKI-1 renal
CCRF-CEM leukemia = system: CCRF-CEM leukemia
DU-145 prostate = system: DU-145 prostate
EKVX NSCLC = system: EKVX NSCLC
HCC-2998 colon = system: HCC-2998 colon
HCT-116 colon = system: HCT-116 colon
HCT-15 colon = system: HCT-15 colon
HOP-62 NSCLC = system: HOP-62 NSCLC
HOP-92 NSCLC = system: HOP-92 NSCLC
HS 578T breast = system: HS 578T breast
HT29 colon = system: HT29 colon
IGROV1 ovarian = system: IGROV1 ovarian
K-562 leukemia = system: K-562 leukemia
KM12 colon = system: KM12 colon
LOX IMVI melanoma = system: LOX IMVI melanoma
M14 melanoma = system: M14 melanoma
MALME-3M melanoma = system: MALME-3M melanoma
MCF7 breast = system: MCF7 breast
MDA-MB-231 breast = system: MDA-MB-231 breast
MDA-MB-435 = system: MDA-MB-435
MOLT-4 leukemia = system: MOLT-4 leukemia
NCI-H226 lung = system: NCI-H226 lung
NCI-H23 lung = system: NCI-H23 lung
NCI-H460 lung = system: NCI-H460 lung
NCI-H522 lung = system: NCI-H522 lung
NCI/ADR-RES ovarian = system: NCI/ADR-RES ovarian
OVCAR-4 ovarian = system: OVCAR-4 ovarian
OVCAR-5 ovarian = system: OVCAR-5 ovarian
OVCAR-8 ovarian = system: OVCAR-8 ovarian
RPMI-8226 leukemia = system: RPMI-8226 leukemia
RXF 393 renal = system: RXF 393 renal
SF-268 CNS = system: SF-268 CNS
SF-295 CNS = system: SF-295 CNS
SF-539 CNS = system: SF-539 CNS
SK-MEL-2 melanoma = system: SK-MEL-2 melanoma
SK-MEL-28 melanoma = system: SK-MEL-28 melanoma
SK-MEL-5 melanoma = system: SK-MEL-5 melanoma
SN12C renal = system: SN12C renal
SNB-19 CNS = system: SNB-19 CNS
SNB-75 CNS = system: SNB-75 CNS
SR leukemia = system: SR leukemia
SW-620 colon = system: SW-620 colon
T-47D breast = system: T-47D breast
TK-10 renal = system: TK-10 renal
U251 CNS = system: U251 CNS
UACC-257 melanoma = system: UACC-257 melanoma
UACC-62 melanoma = system: UACC-62 melanoma
UO-31 renal = system: UO-31 renal

## COc1cc(/C=N/n2cnc3oc(-c4ccccc4)cc3c2=N)cc(CN2CCCCC2)c1O
786-0 renal
  GI50: 1480 nM
  TGI: 3.03 µM
A498 renal
  GI50: 1730 nM
  TGI: 3.28 µM
A549 NSCLC
  GI50: 1700 nM
  TGI: 3.45 µM
ACHN renal
  GI50: 1360 nM
  TGI: 2670 nM
BT-549 breast
  GI50: 2120 nM
  TGI: 4.19 µM
CAKI-1 renal
  GI50: 1430 nM
  TGI: 2770 nM
CCRF-CEM leukemia
  GI50: 324 nM
  TGI: 1250 nM
DU-145 prostate
  GI50: 1800 nM
  TGI: 3.32 µM
EKVX NSCLC
  GI50: 1890 nM
  TGI: 3.68 µM
HCC-2998 colon
  GI50: 1850 nM
  TGI: 3.34 µM
HCT-116 colon
  GI50: 310 nM
  TGI: 959 nM
HCT-15 colon
  GI50: 1770 nM
  TGI: 3.49 µM
HOP-62 NSCLC
  GI50: 1790 nM
  TGI: 3.77 µM
HOP-92 NSCLC
  GI50: 1480 nM
  TGI: 3.28 µM
HS 578T breast
  GI50: 1830 nM
  TGI: 4.36 µM
HT29 colon
  GI50: 489 nM
  TGI: 1790 nM
IGROV1 ovarian
  GI50: 1690 nM
  TGI: 3.35 µM
K-562 leukemia
  GI50: 201 nM
  TGI: 458 nM
KM12 colon
  GI50: 1810 nM
  TGI: 3.39 µM
LOX IMVI melanoma
  GI50: 444 nM
  TGI: 1520 nM
M14 melanoma
  GI50: 1560 nM
  TGI: 3.18 µM
MALME-3M melanoma
  GI50: 1790 nM
  TGI: 3.72 µM
MCF7 breast
  GI50: 512 nM
  TGI: 1990 nM
MDA-MB-231 breast
  GI50: 1640 nM
  TGI: 3.35 µM
MDA-MB-435
  GI50: 1640 nM
  TGI: 3.06 µM
MOLT-4 leukemia
  GI50: 2250 nM
  TGI: 6.57 µM
NCI-H226 lung
  GI50: 2010 nM
  TGI: 4.55 µM
NCI-H23 lung
  GI50: 1810 nM
  TGI: 3.57 µM
NCI-H460 lung
  GI50: 1430 nM
  TGI: 3.08 µM
NCI-H522 lung
  GI50: 2010 nM
  TGI: 4.51 µM
NCI/ADR-RES ovarian
  GI50: 2140 nM
  TGI: 4.91 µM
OVCAR-4 ovarian
  GI50: 1750 nM
  TGI: 3.67 µM
OVCAR-5 ovarian
  GI50: 1890 nM
  TGI: 3.46 µM
OVCAR-8 ovarian
  GI50: 1950 nM
  TGI: 4.7 µM
RPMI-8226 leukemia
  GI50: 2130 nM
  TGI: 5.38 µM
RXF 393 renal
  GI50: 1410 nM
  TGI: 3.15 µM
SF-268 CNS
  GI50: 1970 nM
  TGI: 4.03 µM
SF-295 CNS
  GI50: 1830 nM
  TGI: 3.39 µM
SF-539 CNS
  GI50: 1750 nM
  TGI: 3.33 µM
SK-MEL-2 melanoma
  GI50: 1790 nM
  TGI: 3.66 µM
SK-MEL-28 melanoma
  GI50: 1630 nM
  TGI: 3.25 µM
SK-MEL-5 melanoma
  GI50: 1760 nM
  TGI: 3.17 µM
SN12C renal
  GI50: 1550 nM
  TGI: 3.21 µM
SNB-19 CNS
  GI50: 1980 nM
  TGI: 3.73 µM
SNB-75 CNS
  GI50: 1390 nM
  TGI: 2790 nM
SR leukemia
  GI50: 247 nM
  TGI: 687 nM
SW-620 colon
  GI50: 1910 nM
  TGI: 3.76 µM
T-47D breast
  GI50: 2040 nM
  TGI: 4.62 µM
TK-10 renal
  GI50: 1910 nM
  TGI: 3.46 µM
U251 CNS
  GI50: 1830 nM
  TGI: 3.6 µM
UACC-257 melanoma
  GI50: 1930 nM
  TGI: 3.88 µM
UACC-62 melanoma
  GI50: 1830 nM
  TGI: 3.35 µM
UO-31 renal
  GI50: 1390 nM
  TGI: 2920 nM
